Laboratory results as given in patent US20060246178A1, “Fermented milk product comprising tripeptide vpp and/or ipp” (priority 2003, published 2006).

What was measured:
ACE = ACE (Homo sapiens, UniProt P12821); test: ACE inhibition activity assay with fluorogenic substrate Abz-FRK(Dnp)P-OH; format: biochemical; conditions: standard, 5 μM end-concentration
Procedure: When ACE cleaves the R—K bond of the fluorogenic substrate, the distance of the quencher (Dnp) with regard to the fluorescent group (Abz) will be enlarged resulting in a fluorescent signal.
This signal is direct related to the ACE activity and is measured with a fluorometer.
Samples were prepared as follows:
The fermented milk was transferred to a centrifuge tube. The pH was adjusted to 4.0±0.1 by adding a few μl of 6 M HCl and centrifuged for 5-10 minutes at 4.000×g at room temperature (RT). The supernatant was transferred to a tube and the pH was adjusted to 7.0±0.1 by adding a few μl of 6 M NaOH. The pH-adjusted sample was transferred to an Eppendorf tube and centrifuged for ten minutes at 14.000 rpm at RT. The supernatant was transferred to a tube and ready for the ACE inhibition activity assay. If sample was not processed immediately, it was stored at −20° C.
The slope/second is a measure for the activity of ACE.
As a standard, Captopril (1 nM end-concentration) or IPP (5 μM end-concentration) was used.

[1] = target: Angiotensin I Converting Enzyme (ACE) (Homo sapiens, UniProt P12821); conditions: literature (Kohmura 1990; Nakamura 1995); read-out: IC50, the concentration which results in 50% inhibition of the ACE activity; cited from earlier work
Angiotensin I Converting Enzyme (ACE), sequence (P12821 30-1306, species assumed): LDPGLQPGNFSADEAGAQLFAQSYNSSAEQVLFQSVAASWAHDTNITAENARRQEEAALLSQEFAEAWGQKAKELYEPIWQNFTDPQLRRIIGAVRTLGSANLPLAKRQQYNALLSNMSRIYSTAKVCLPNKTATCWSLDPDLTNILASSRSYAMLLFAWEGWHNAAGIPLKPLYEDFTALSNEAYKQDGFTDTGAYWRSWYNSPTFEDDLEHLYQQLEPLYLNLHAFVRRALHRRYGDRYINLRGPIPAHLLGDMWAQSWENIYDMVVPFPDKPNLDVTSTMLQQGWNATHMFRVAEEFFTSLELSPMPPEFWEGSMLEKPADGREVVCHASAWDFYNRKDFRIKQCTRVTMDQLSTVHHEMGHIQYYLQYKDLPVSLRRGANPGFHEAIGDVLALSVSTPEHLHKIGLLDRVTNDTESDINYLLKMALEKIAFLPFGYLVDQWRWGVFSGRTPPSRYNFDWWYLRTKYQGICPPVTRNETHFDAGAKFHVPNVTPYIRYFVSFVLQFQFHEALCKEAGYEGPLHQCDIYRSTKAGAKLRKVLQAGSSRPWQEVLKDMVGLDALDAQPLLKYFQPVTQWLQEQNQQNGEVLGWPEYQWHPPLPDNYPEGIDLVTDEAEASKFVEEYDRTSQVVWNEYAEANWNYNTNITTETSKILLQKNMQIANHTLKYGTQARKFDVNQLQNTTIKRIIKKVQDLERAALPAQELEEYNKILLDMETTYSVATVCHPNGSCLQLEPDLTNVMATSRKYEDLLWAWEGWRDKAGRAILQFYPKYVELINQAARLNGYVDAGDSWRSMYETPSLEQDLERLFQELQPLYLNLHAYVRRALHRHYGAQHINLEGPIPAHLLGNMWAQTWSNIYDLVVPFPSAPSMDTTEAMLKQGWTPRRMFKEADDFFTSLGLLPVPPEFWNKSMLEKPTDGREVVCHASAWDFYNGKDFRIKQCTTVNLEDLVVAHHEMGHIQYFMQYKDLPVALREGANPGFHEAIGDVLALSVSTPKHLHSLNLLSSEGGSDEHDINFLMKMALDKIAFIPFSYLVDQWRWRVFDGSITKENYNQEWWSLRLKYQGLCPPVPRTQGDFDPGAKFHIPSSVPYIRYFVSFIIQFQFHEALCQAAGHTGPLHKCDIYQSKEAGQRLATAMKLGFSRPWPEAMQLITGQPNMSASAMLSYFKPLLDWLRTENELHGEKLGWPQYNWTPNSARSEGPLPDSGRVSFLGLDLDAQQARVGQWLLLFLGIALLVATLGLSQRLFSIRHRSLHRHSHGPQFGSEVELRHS

ACE, sequence (P12821 30-1306, species assumed): as above

Substance | inhibition of the ACE activity (ACE) | IC50 [1] [µM]
Ile-Pro-Pro [IPP] | about 30% | 5
Val-Pro-Pro [VPP] |  | 9
